How the values were obtained:
[1] = target: human GluN1/GluN2B NMDA receptors (Homo sapiens, UniProt Q05586+Q13224); assay: Cell-based calcium flux (FLIPR) assay on cloned human GluN1/GluN2B ion channels expressed in mammalian cells; conditions: standard assay; glutamate ~EC40, 10 μM glycine; stable Tet-On cell line
Summary of the method: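 Tet-On-induced stable cells expressing human GluN1/GluN2B, Calcium 5 dye. Compounds preincubated 5 min (agonist check), then glutamate at ~EC40 plus 10 μM glycine added for 5 min; Mg2+ and buffer composition differ between standard and HTS formats. FLIPR Tetra fluorescence normalised to control wells; (+)MK-801 as antagonist control.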

[2] = Liver microsomal stability assay (extraction ratio); type: in vitro ADME; conditions: test compound 1 μM; 0.5 mg/mL liver microsomes, NADPH, 37° C.; species not stated (method: mouse, rat, and human)
Method: 5.4. Liver Microsomal Stability Assay (Extraction Ratio)
Microsomal stability studies (see, Chrovian et al, “H-Pyrrolo[3,2-b]pyridine GluN2B-Selective Negative Allosteric Modulators”. ACS Med Chem Lett. 2019 Jan. 10; 10(3):261-266) were conducted on a Biomek® FX Robotic Liquid Handling Workstation (Beckman Coulter, Brea, Calif.), which consists of a 96-channel pipette head, a 12-position workstation deck, and a plate incubator. Test compounds (1 μM) were spiked in a reaction mix consisting of 100 mM potassium phosphate buffer (pH 7.4), 3 mM MgCl2, and 0.5 mg/mL liver microsomes from mouse, rat, and human (BD Gentest). The reaction was brought to 37° C. and initiated by adding NADPH to a final concentration of 1 mM. After mixing on the platedeck, 50 μL aliquots were excised from the reaction plate at 0, 5, 10, 20, 40, and 60 min and quenched with four volumes of acetonitrile spiked with […] of the internal standard phenytoin. Quenched plates were centrifuged at 5700 rpm for 10 min at 4° C., and supernatant was diluted 1:3 in water before LC/MS/MS analysis. The compound half-lives were derived from plots of the In of percent remaining compound over time to determine the intrinsic clearance. The predicted hepatic clearance was derived from the intrinsic clearance value using equations from the well-stirred model (Current Drug Metabolism, 2008, 9, 940-951), where no correction was made plasma protein binding and the blood to plasma concentration ratio was assumed to be one. The extraction ratio (ER) was calculated by dividing the predicted hepatic clearance by species blood flow (Q), where Q is 90, 55, and 21.7 mL/min/kg for mouse, rat and human, respectively.

human GluN1/GluN2B NMDA receptors, sequence (Q13224 27-1484, other chains not shown): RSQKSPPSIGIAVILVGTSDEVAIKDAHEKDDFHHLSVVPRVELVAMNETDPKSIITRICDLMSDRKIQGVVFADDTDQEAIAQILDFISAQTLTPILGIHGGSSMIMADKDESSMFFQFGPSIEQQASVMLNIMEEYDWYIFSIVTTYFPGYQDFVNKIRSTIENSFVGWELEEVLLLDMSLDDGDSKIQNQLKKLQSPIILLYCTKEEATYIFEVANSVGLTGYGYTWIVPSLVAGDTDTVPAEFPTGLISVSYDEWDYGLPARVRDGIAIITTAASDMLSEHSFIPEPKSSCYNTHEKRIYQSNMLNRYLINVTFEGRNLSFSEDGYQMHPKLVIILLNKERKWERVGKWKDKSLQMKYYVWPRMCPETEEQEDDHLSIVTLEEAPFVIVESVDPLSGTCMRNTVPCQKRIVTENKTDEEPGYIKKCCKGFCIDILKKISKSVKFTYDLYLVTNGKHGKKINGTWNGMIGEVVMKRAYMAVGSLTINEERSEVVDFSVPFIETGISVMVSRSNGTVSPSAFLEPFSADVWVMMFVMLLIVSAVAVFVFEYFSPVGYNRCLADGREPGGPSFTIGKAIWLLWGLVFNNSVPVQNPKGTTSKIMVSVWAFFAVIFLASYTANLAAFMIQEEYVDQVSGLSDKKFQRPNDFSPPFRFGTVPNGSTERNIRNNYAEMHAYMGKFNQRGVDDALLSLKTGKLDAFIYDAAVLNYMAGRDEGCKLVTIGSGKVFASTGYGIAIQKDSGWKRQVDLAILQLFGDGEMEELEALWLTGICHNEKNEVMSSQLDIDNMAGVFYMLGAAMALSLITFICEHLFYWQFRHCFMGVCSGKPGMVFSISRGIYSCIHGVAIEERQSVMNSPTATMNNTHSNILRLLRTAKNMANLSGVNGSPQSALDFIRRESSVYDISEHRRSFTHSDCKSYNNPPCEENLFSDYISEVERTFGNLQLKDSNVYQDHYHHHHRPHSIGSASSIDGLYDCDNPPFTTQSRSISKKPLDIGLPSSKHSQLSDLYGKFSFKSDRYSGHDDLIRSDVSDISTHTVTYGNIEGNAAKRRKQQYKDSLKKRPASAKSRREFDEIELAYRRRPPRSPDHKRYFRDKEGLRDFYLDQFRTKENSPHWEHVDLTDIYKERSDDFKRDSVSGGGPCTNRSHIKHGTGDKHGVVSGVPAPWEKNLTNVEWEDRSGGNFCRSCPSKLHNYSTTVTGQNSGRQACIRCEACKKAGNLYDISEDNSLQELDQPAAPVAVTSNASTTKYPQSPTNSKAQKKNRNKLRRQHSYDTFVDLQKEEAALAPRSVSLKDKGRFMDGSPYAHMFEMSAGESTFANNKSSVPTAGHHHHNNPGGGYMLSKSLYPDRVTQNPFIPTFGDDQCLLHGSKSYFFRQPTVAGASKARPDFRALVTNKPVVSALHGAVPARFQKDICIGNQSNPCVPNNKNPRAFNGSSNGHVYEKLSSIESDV

| SMILES | IC50 [1] [nM] | Extraction Ratio @ 1 μM [2] |
| --- | --- | --- |
| CC(c1cncc(-c2ccc(F)c(C(F)F)c2)c1)N1CCOC1=O (racemic) [Example 60, (R/S)-3-[1-[5-[3-(difluoromethyl)-4-fluoro-phenyl]-3-pyridyl]ethyl]oxazolidin-2-one] | 785 | 0.42 |
| O=C1OCCCN1Cc1cncc(-c2ccc(Cl)c(OC(F)F)c2)c1 [Example 53, 3-[[5-[4-chloro-3-(difluoromethoxy)phenyl]-3-pyridyl]methyl]-1,3-oxazinan-2-one] | – | 0.61 |
| C[C@@H]1COC(=O)N1Cc1cc(-c2ccc(F)c(C(F)F)c2)cnc1OC(F)F [Example 132, (4R)-3-[[2-(Difluoromethoxy)-5-[3-(difluoromethyl)-4-fluoro-phenyl]-3-pyridyl]methyl]-4-methyl-oxazolidin-2-one] | 176 | – |
| CC(F)(F)c1ncc(-c2ccc(F)c(C(F)F)c2)cc1CN1CCCOC1=O [Example 136, 3-[[2-(1,1-Difluoroethyl)-5-[3-(difluoromethyl)-4-fluoro-phenyl]-3-pyridyl]methyl]-1,3-oxazinan-2-one] | 99 | – |
| CC(F)(F)c1ncc(-c2ccc(F)c(C(F)F)c2)cc1CN1CC2(CCC2)OC1=O [Example 138, 6-[[2-(1,1-Difluoroethyl)-5-[3-(difluoromethyl)-4-fluoro-phenyl]-3-pyridyl]methyl]-8-oxa-6-azaspiro[3.4]octan-7-one] | 549 | – |
| C[C@@H]1CN(Cc2cc(-c3ccc(F)c(C(F)F)c3)cnc2C(C)(F)F)C(=O)O1 [Example 139, (5R)-3-[[2-(1,1-Difluoroethyl)-5-[3-(difluoromethyl)-4-fluoro-phenyl]-3-pyridyl]methyl]-5-methyl-oxazolidin-2-one] | 134 | – |
| C[C@H]1CN(Cc2cc(-c3ccc(F)c(C(F)F)c3)cnc2C(C)(F)F)C(=O)O1 [Example 140, (5S)-3-[[2-(1,1-Difluoroethyl)-5-[3-(difluoromethyl)-4-fluoro-phenyl]-3-pyridyl]methyl]-5-methyl-oxazolidin-2-one] | 111 | – |
| CC(F)(F)c1ncc(-c2ccc(F)c(C(F)F)c2)cc1CN1CC2(CC2)OC1=O [Example 141, 5-[[2-(1,1-Difluoroethyl)-5-[3-(difluoromethyl)-4-fluoro-phenyl]-3-pyridyl]methyl]-7-oxa-5-azaspiro[2.4]heptan-6-one] | 245 | – |
| C[C@H]1COC(=O)N1Cc1cc(-c2ccc(F)c(C(F)F)c2)cnc1C(C)(F)F [Example 142, (4S)-3-[[2-(1,1-Difluoroethyl)-5-[3-(difluoromethyl)-4-fluoro-phenyl]-3-pyridyl]methyl]-4-methyl-oxazolidin-2-one] | 2000 | – |
| C[C@@H]1COC(=O)N1Cc1cc(-c2ccc(F)c(C(F)F)c2)cnc1C(C)(F)F [Example 143, (4R)-3-[[2-(1,1-Difluoroethyl)-5-[3-(difluoromethyl)-4-fluoro-phenyl]-3-pyridyl]methyl]-4-methyl-oxazolidin-2-one] | 180 | – |
| C[C@@H]1COC(=O)N1Cc1cc(-c2ccc(F)c(OC(F)F)c2)cnc1C(C)(F)F [Example 144, (4R)-3-[[2-(1,1-Difluoroethyl)-5-[3-(difluoromethoxy)-4-fluoro-phenyl]-3-pyridyl]methyl]-4-methyl-oxazolidin-2-one] | 157 | – |
| C[C@H]1COC(=O)N1Cc1cc(-c2ccc(F)c(OC(F)F)c2)cnc1C(C)(F)F [Example 145, (4S)-3-[[2-(1,1-Difluoroethyl)-5-[3-(difluoromethoxy)-4-fluoro-phenyl]-3-pyridyl]methyl]-4-methyl-oxazolidin-2-one] | 492 | – |
| CC(F)(F)c1ncc(-c2ccc(F)c(OC(F)F)c2)cc1CN1CC2(CC2)OC1=O [Example 146, 5-[[2-(1,1-Difluoroethyl)-5-[3-(difluoromethoxy)-4-fluoro-phenyl]-3-pyridyl]methyl]-7-oxa-5-azaspiro[2.4]heptan-6-one] | 212 | – |
| CC(F)(F)c1ncc(-c2ccc(F)c(OC(F)F)c2)cc1CN1CC2(CCC2)OC1=O [Example 147, 6-[[2-(1,1-Difluoroethyl)-5-[3-(difluoromethoxy)-4-fluoro-phenyl]-3-pyridyl]methyl]-8-oxa-6-azaspiro[3.4]octan-7-one] | 392 | – |
| C[C@H]1CN(Cc2cc(-c3ccc(F)c(OC(F)F)c3)cnc2C(C)(F)F)C(=O)O1 [Example 148, (5S)-3-[[2-(1,1-Difluoroethyl)-5-[3-(difluoromethoxy)-4-fluoro-phenyl]-3-pyridyl]methyl]-5-methyl-oxazolidin-2-one] | 147 | – |
| C[C@@H]1CN(Cc2cc(-c3ccc(F)c(OC(F)F)c3)cnc2C(C)(F)F)C(=O)O1 [Example 149, (5R)-3-[[2-(1,1-Difluoroethyl)-5-[3-(difluoromethoxy)-4-fluoro-phenyl]-3-pyridyl]methyl]-5-methyl-oxazolidin-2-one] | 127 | – |

Continued by falling IC50 [1], values first:

| IC50 [1] [nM] | Extraction Ratio @ 1 μM [2] | SMILES |
| --- | --- | --- |
| 76 | – | O=C1OCCN1Cc1cc(-c2ccc(F)c(OC(F)F)c2)cnc1OC(F)F [Example 133, 3-[[2-(Difluoromethoxy)-5-[3-(difluoromethoxy)-4-fluoro-phenyl]-3-pyridyl]methyl]oxazolidin-2-one] |
| 76 | – | CC(F)(F)c1ncc(-c2ccc(F)c(OC(F)F)c2)cc1CN1CCCOC1=O [Example 137, 3-[[2-(1,1-Difluoroethyl)-5-[3-(difluoromethoxy)-4-fluoro-phenyl]-3-pyridyl]methyl]-1,3-oxazinan-2-one] |
| 61 | – | C[C@@H]1COC(=O)N1Cc1cc(-c2ccc(F)c(OC(F)F)c2)cnc1OC(F)F [Example 134, (4R)-3-[[-(Difluoromethoxy)-5-[3-(difluoromethoxy)-4-fluoro-phenyl]-3-pyridyl]methyl]-4-methyl-oxazolidin-2-one] |
| 47 | – | CC(F)(F)c1ncc(-c2ccc(F)c(C(F)F)c2)cc1CN1CCOC1=O [Example 135, 3-[[2-(1,1-Difluoroethyl)-5-[3-(difluoromethyl)-4-fluoro-phenyl]-3-pyridyl]methyl]oxazolidin-2-one] |
| 27 | 0.55 | Cc1ncc(-c2ccc(F)c(C(F)F)c2)cc1CN1CCCOC1=O [Example 97, 3-[[5-[3-(Difluoromethyl)-4-fluoro-phenyl]-2-methyl-3-pyridyl]methyl]-1,3-oxazinan-2-one] |
| 14 | 0.42 | C[C@H]1CN(Cc2cncc(-c3ccc(F)c(C(F)F)c3)c2)C(=O)O1 (single isomer, unassigned) [Example 27, (S*)-3-[[5-[3-(Difluoromethyl)-4-fluoro-phenyl]-3-pyridyl]methyl]-5-methyl-oxazolidin-2-one] |
| 13 | 0.61 | [2H]C([2H])(c1cncc(-c2ccc(F)c(C(F)F)c2)c1)N1CCOC1=O [Example 54, 3-[Dideuterio-[5-[3-(difluoromethyl)-4-fluoro-phenyl]-3-pyridyl]methyl]oxazolidin-2-one] |
| 13 | 0.60 | Cc1ncc(-c2ccc(F)c(C(F)F)c2)cc1CN1CCOC1=O [Example 90, 3-[[5-[3-(Difluoromethyl)-4-fluoro-phenyl]-2-methyl-3-pyridyl]methyl] oxazolidin-2-one] |
| 11 | 0.63 | O=C1OCCN1Cc1cncc(-c2ccc(F)c(C(F)F)c2)c1 [Example 22, 3-[[5-[3-(Difluoromethyl)-4-fluoro-phenyl]-3-pyridyl]methyl]oxazolidin-2-one] |
| 11 | – | O=C1OCCN1Cc1cc(-c2ccc(F)c(OC(F)F)c2)cnc1F [Example 150, 3-((5-(3-(Difluoromethoxy)-4-fluorophenyl)-2-fluoropyridin-3-yl)methyl)oxazolidin-2-one] |
| 11 | – | O=C1OCCCN1Cc1cc(-c2ccc(F)c(OC(F)F)c2)cnc1F [Example 151, 3-((5-(3-(Difluoromethoxy)-4-fluorophenyl)-2-fluoropyridin-3-yl)methyl)-1,3-oxazinan-2-one] |
| 10 | 0.49 | O=C1OCCCN1Cc1cncc(-c2ccc(F)c(OC(F)F)c2)c1 [Example 1, 3-[[5-[3-(Difluoromethoxy)-4-fluoro-phenyl]-3-pyridyl]methyl]-1,3-oxazinan-2-one] |
| 9 | <0.298 | O=C1OCCCN1Cc1cncc(-c2ccc(F)c(C(F)F)c2)c1 [Example 38, 3-[[5-[3-(Difluoromethyl)-4-fluoro-phenyl]-3-pyridyl]methyl]-1,3-oxazinan-2-one] |
